Experimental data reported in US8076332B2, “N- (2-aminophenyl) benzamide derivative having urea structure” (Santen Pharmaceutical Co., Ltd., priority 2006, dated 2011).

Legend:
[1] = test system: human trabecular meshwork cell line (TM-1 cells); assay: Test for evaluation of effect of morphological change on trabecular meshwork cells (cell shape index, CSI); assay type: cell-based; details: final concentration 10 μM, incubation 24 hours, CSI=4π×(Cell Area)/(Cell Perimeter)^2, average per group, Control 0.730
Description: 1. Test for Evaluation of Effect of Morphological Change on Trabecular Meshwork Cells
As a method for evaluating a cellular morphological change, an evaluation system using the cell shape index (hereinafter referred to as “CSI”) as an index has been reported in The Journal of Clinical Investigation, 103, 1141-1150 (1999). Therefore, according to the method described in the above document, an effect of morphological change of the present compounds on trabecular meshwork cells was evaluated.
A human trabecular meshwork cell line (hereinafter referred to as “TM-1 cells”) reported in Investigative Opthalmology & Visual Science, 43, 151-161 (2002) was used.
Culture medium 1: A reagent was prepared by adding fetal bovine serum (10%), L-glutamine (2 mM), amphotericin B (2.5 μg/mL), and gentamicin (25 μg/mL) to Dulbecco's modified Eagle medium (hereinafter referred to as “D-MEM”).
Culture medium 2: Fetal bovine serum (3%), L-glutamine (2 mM), amphotericin B (2.5 μg/mL), and gentamicin (25 μg/mL) were added to D-MEM.
Cell staining liquid: A mixed liquid of Calcein-AM (16 μM) and Hoechst 33342 (40 μM) was prepared by diluting a Calcein-AM solution (cytoplasmic staining reagent, manufactured by Dojindo Laboratories) and a Hoechst 33342 solution (nuclear staining reagent, manufactured by Dojindo Laboratories) with D-MEM containing L-glutamine (2 mM), amphotericin B (2.5 μg/mL), and gentamicin (25 μg/mL).
TM-1 cells subcultured at 37° C. in a 8% carbon dioxide gas atmosphere were treated with a trypsin/EDTA solution (0.05% trypsin and 0.53 mM tetrasodium ethylenediaminetetraacetate) at 24 hours before performing a drug treatment mentioned below and seeded on a 96-well culture plate. The culture medium 1 was used for the subculture of the cells. The culture medium 2 was used for the cell culture after seeding the cells on the plate.
A test compound was dissolved in dimethyl sulfoxide, whereby a 5 mM solution was prepared. Then, the resulting solution was diluted with the culture medium 2, whereby a 200 μM test compound solution was prepared.
It has been reported that Y-27632 which is a Rho kinase inhibitor induces a morphological change in trabecular meshwork cells in Investigative Ophthalmology & Visual Science, 42, 137-144 (2001). Therefore, Y-27632 (produced according to the method described in WO 90/05723) was used as a positive control, and dissolved in dimethyl sulfoxide in the same manner as the test compound, whereby a 5 mM solution was prepared, and then, the resulting solution was diluted with the culture medium 2, whereby a 200 μM positive control compound solution was prepared.
1) To a 96-well culture plate, a solution of TM-1 cells adjusted to a cell density of […] was added in an amount of 95 μL (1.5×10^4 cells) per well.
2) Incubation was performed at 37° C. in a 8% carbon dioxide gas atmosphere for 24 hours.
3) The test compound solution or positive control compound solution was added in an amount of 5 μL per well (the final concentration of the test compound or positive control compound was 10 μM). As a control, the culture medium 2 containing dimethyl sulfoxide (4%) was added in an amount of 5 μL per well.
4) Incubation was performed at 37° C. in a 8% carbon dioxide gas atmosphere for 24 hours.
5) The cell staining liquid was added in an amount of 10 μL per well.
6) Incubation was performed at 37° C. in a 8% carbon dioxide gas atmosphere for 1 hour to stain the cells.
7) A 37% formaldehyde solution was added in an amount of 10 μL per well.
8) Incubation was performed at room temperature for 1 hour to fix the cells.
9) Washing with phosphate-buffered saline was performed.
10) Using Array Scan Vti HCS reader (manufactured by Cellomics), images of stained cells magnified with a 20 times objective lens were captured in 80 fields (10 fields×8 wells) per test compound addition group.
11) CSI was calculated for each cell and an average value was obtained for each test compound addition group. […]

[2] = test system: male Japanese White rabbits; assay: Test for evaluation of intraocular pressure-lowering effect (intracameral administration); assay type: in vivo; details: 20 μL of 1 mM administration liquid to one eye, at 9 hours after administering, versus vehicle control group, 6 cases per group
Description: 2. Test for Evaluation of Intraocular Pressure-Lowering Effect
In order to evaluate an intraocular pressure-lowering effect of the present compounds, a test for evaluation of intraocular pressure-lowering effect of intracameral administration of a drug using male Japanese White rabbits was performed.
A test compound was dissolved or suspended in physiological saline containing 0.5% dimethyl sulfoxide, whereby a 1 mM test compound administration liquid was prepared.
One drop of 0.4% oxybuprocaine hydrochloride eye drop was instilled into both eyes of each male Japanese White rabbit to achieve local anesthesia, and thereafter, the intraocular pressure was measured using an applanation tonometer. Then, by using a syringe fitted with a 30-gauge needle, the test compound administration liquid (20 μL) was intracamerally administered to one eye. As a control, 20 μL of the vehicle (physiological saline containing 0.5% dimethyl sulfoxide) for the test compound was intracamerally administered. After the lapse of a certain period of time from the administration of the test compound or vehicle, one drop of 0.4% oxybuprocaine hydrochloride eye drop was instilled into the administered eye to achieve local anesthesia, and thereafter, the intraocular pressure was measured using an applanation tonometer.
The intraocular pressure-lowering effect of each test compound was evaluated by calculating an intraocular pressure reduction rate. The intraocular pressure reduction rate (%) was calculated using the following equation. (Intraocular Pressure Reduction rate(%))=100×(Average Value of Intraocular Pressure of Control Group)−(Average Value of Intraocular Pressure of Each Test Compound Administration Group)/(Average Value of Intraocular Pressure of Control Group) (Test Results)
As an example of the test results, the intraocular pressure reduction rates of the respective test compound administration groups at 9 hours after administering the respective test compounds (Compound 1-59, Compound 1-80, and Compound 2-2) are shown in Table II (one group consisting of 6 cases).

Compound | CSI [1] | Intraocular Pressure Reduction Rate (%) [2] [%]
Nc1ccccc1NC(=O)c1ccc(CN(CCCN2CCOCC2)C(=O)NCCc2ccc3c(c2)OCO3)cc1 [Compound 1-59, N-(2-Aminophenyl)-4-[3-[2-(benzo[1,3]dioxol-5-yl)ethyl]-1-[3-(morpholin-4-yl)propyl]ureidomethyl]benz-amide] | 0.571 | 19
CN(C)CCN(Cc1ccc(C(=O)Nc2ccccc2N)cc1)C(=O)Nc1ccc2c(c1)OCCO2 [Compound 1-80, N-(2-Aminophenyl)-4-[3-(2,3-dihydrobenzo[1,4]dioxin-6-yl)-1-(2-dimethylamino-ethyl)ureidomethyl]benzamide] | 0.543 | 18
CN1CCN(CCN(Cc2ccc(C(=O)Nc3ccccc3N)cc2)C(=O)Nc2ccc(F)c(F)c2)CC1 [Compound 1-113, N-(2-Aminophenyl)-4-[3-(3,4-difluorophenyl)-1-[2-(4-methylpiperazin-1-yl)ethyl]-ureidomethyl]benzamide] | 0.585 | –
CC1CCN(CCCN(Cc2ccc(C(=O)Nc3ccccc3N)cc2)C(=O)Nc2ccc3c(c2)OCCO3)CC1 [Compound 1-128, N-(2-Aminophenyl)-4-[3-(2,3-dihydrobenzo[1,4]dioxin-6-yl)-1-[3-(4-methylpiper-idin-1-yl)propyl]ureido-methyl]benzamide] | 0.554 | –
Nc1ccccc1NC(=O)c1ccc(CN(CCCN2CCOCC2)C(=O)Nc2ccsc2)cc1 [Compound 1-134, N-(2-Aminophenyl)-4-[1-(3-(morpholin-4-yl)propyl]-3-(thiophen-3-yl)ureido-methyl]benzamide] | 0.580 | –
Cc1cc(NC(=O)N(CCCN2CCOCC2)Cc2ccc(C(=O)Nc3ccccc3N)cc2)ccc1F [Compound 1-135] | 0.555 | –
Nc1ccccc1NC(=O)c1ccc(CN(CCCN2CCOCC2)C(=O)Nc2ncc([N+](=O)[O-])s2)cc1 [Compound 1-165, N-(2-Aminophenyl)-4-[1-(3-(morpholin-4-yl)propyl]-3-(5-nitrothiazol-2-yl)ureido-methyl]benzamide] | 0.578 | –
Nc1ccccc1NC(=O)c1ccc(CN(CCCN2CCCC2)C(=O)Nc2ccc3c(c2)OCCO3)cc1 [Compound 1-169, N-(2-Aminophenyl)-4-[3-(2,3-dihydrobenzo[1,4]dioxin-6-yl)-1-[3-(pyrrolidin-1-yl)propyl]ureidomethyl]benz-amide] | 0.566 | –
CN(C)CCCN(Cc1ccc(C(=O)Nc2ccccc2N)cc1)C(=O)Nc1ccc(F)c(F)c1 [Compound 2-2, N-(2-Aminophenyl)-4-[3-(3,4-difluorophenyl)-1-(3-dimethylaminopropyl)ureidomethyl]benzamide] | 0.585 | 13
COc1ccccc1NC(=O)N(CCCN(C)C)Cc1ccc(C(=O)Nc2ccccc2N)cc1 [Compound 2-3, N-(2-Aminophenyl)-4-[1-(3-dimethylaminopropyl)-3-(2-methoxyphenyl)ureidomethyl]benzamide] | 0.618 | –
CCOC(=O)CNC(=O)N(CCCN(C)C)Cc1ccc(C(=O)Nc2ccccc2N)cc1 [Compound 2-4] | 0.664 | –
CN(C)CCCN(Cc1ccc(C(=O)Nc2ccccc2N)cc1)C(=O)NC(C)(C)C [Compound 2-5, N-(2-Aminophenyl)-4-[3-t-butyl-1-(3-dimethylaminopropyl)ureidomethyl]benzamide] | 0.570 | –
CN(C)CCCN(Cc1ccc(C(=O)Nc2ccccc2N)cc1)C(=O)Nc1cccc(O)c1 [Compound 3-1, N-(2-Aminophenyl)-4-[1-(3-dimethylaminopropyl)-3-(3-hydroxyphenyl)ureidomethyl]benzamide] | 0.616 | –
C[C@@H](N)[C@H]1CC[C@H](C(=O)Nc2ccncc2)CC1 [Compound Y-27632, reference compound] | 0.600 | –
